Data reported in patent US10619133B2, “Engineered living tissue substitute” (NATIONAL UNIVERSITY OF IRELAND, GALWAY, priority 2011, dated 2020).

Assays:
enzymatic activity = details: cited from earlier work
[1] = test system: human umbilical arterial smooth muscle cells (HUASMC); test: ECM / collagen-1 deposition in human umbilical arterial smooth muscle cells; format: cell-based; details: 0, 25, 50, 100 μM ascorbic acid; p>0.05
Description: Human lung fibroblasts (WI-38; American Tissue Culture Collection), Human skin fibroblasts (WS-1; American Tissue Culture Collection) were routinely cultured in Dulbecco's modified Eagle medium with 10% fetal bovine serum (FBS), 1% penicillin-streptomycin at 37° C. in a humidified atmosphere of 5% CO2. Commercially available Smooth Muscle Growth Medium-2 (CLONETICS® SmGM®-2) and supplements (SmGM-2 SingleQuots) were used for human umbilical arterial smooth muscle cells (HUASMC; CLONETICS® UASMC-Human Umbilical Artery Smooth Muscle Cells; Lonza CC-2579). Cells were seeded at 50,000 cells/well in 24-well plates and were allowed to attach for 24 hours. […] To induce collagen synthesis, fibroblasts were supplemented with 100 μM L-ascorbic acid phosphate. The HUASMC was supplemented with various concentration of ascorbic acid (0 μM, 25 μM, 50 μM and 100 μM). In some of the experiment commercially available human serum (Lonza, Belgium) was also used as supplement in place of FBS. At the end of culture time points, culture media were collected into separate vials, whereas cell layers were washed twice with Hank's balanced salt solution (HBSS). […] Cell layer and Medium samples were analyzed by SDS-PAGE under nonreducing conditions with Mini-Protean 3 (Bio-Rad Laboratories). […] Collagen bands were quantified by defining each band with the rectangular tool with background subtraction.

OC[C@H]1O[C@@](CO)(O[C@H]2O[C@H](CO)[C@@H](O)[C@H](O)[C@H]2O)[C@@H](O)[C@@H]1O [Sucrose]
effect on enzymatic activity (enzymatic activity): Ineffective

O=C1O[C@H]([C@@H](O)CO)C(O)=C1O [ascorbic acid]
effect of ascorbic acid on ECM deposition [1]: did not affected ECM deposition
